Data published in publication PMC5595280, “Cytotoxicity and anti-tumor effects of new ruthenium complexes on triple negative breast cancer cells” (PLoS ONE, 2017).

System: MDA-MB-231 cells
Experiment: Cell adhesion to ECM proteins
Format: cell-based, human
Experimental: The effects of complex (4) on the adhesion of MDA-MB-231 cells were analyzed in 96-well plates (Corning) as described earlier. Vitronectin (1.0 μg), laminin (0.3 μg) or fibronectin (0.3 μg) immobilized on the plates in a cell adhesion buffer (20 mM HEPES, 150 mM NaCl, 5 mM KCl, 1 mM MgSO4 and 1 mM MnCl2 pH 7.35), overnight at 4°C. Collagen type I (10 μg) was dissolved in acetic acid (0.1%) and coated on the wells. On the next day, wells were blocked with adhesion buffer containing 1% BSA solution for 1h and then washed with 100 μL per well of adhesion buffer. Cells (5 x 10^4/100 μL) were incubated for 30 min with different concentrations of the complex (4) at 37°C 5% CO2 and then plated and incubated under the same conditions for a further 1h. Then the non-adhered cells were gently removed by washing and attached cells were fixed with 100 μL 70% ethanol for 10 min. Cells were stained with 0.5% crystal violet for 20min and the excess dye was removed by washing with PBS. The stained cells were diluted in 100 μL of 1% solution of sodium dodecyl sulfate (SDS) for 30min and reading of the plates was performed on ELISA reader at 595 nm wavelength.

CC(=O)[O-].F[P-](F)(F)(F)(F)F.[Ru+2].c1ccc(-c2ccccn2)nc1.c1ccc(P(CCCCP(c2ccccc2)c2ccccc2)c2ccccc2)cc1 [Complex (4), [Ru(CH3CO2)(dppb)(bipy)]PF6]
inhibition of cell adhesion to type I collagen (20 μM): approximately 35% | inhibition of cell adhesion to fibronectin, laminin and vitronectin (40 μM): about 65% | inhibition of cell adhesion to type I collagen (40 μM): ~50% | effect on cell adhesion to fibronectin, laminin and vitronectin (all concentrations tested): inhibited cell adhesion
